The IC50 is the concentration at which inhibition is half-maximal.

The subject of assay [1] is human pancreatic cancer cells PANC-1. In words: Inhibition of necrosis of PANC-1 cells induced by TNF-α (CellTiter-Glo). It is filed as cell-based. To be noted: TNF-α 100 ng/ml + AT-406 1 μM + z-VAD-FMK 20 μM, 24 h. As for the experimental part:
(§1) After the cells were incubated in a 5% CO2 incubator at 37° C. for 24 h, the test compound of the present invention and the control compound were diluted to the corresponding pre-determined concentration using the medium, and added to the 384-well plate at 5 μL/well. […] Then, 30 μL of CellTiter-Glo luminescent solution was added to each well, and shaken for 2 min. After standing at room temperature for 10 min, the absorbance was measured using ELISA. […] A is the group without necrosis-inducing agents, and B is the group with necrosis-inducing agents. […] A is the group without necrosis-inducing agents, B is the group with necrosis-inducing agents, and X is the group with compounds and necrosis-inducing agents.
(In ATP-based viability assays light output follows the ATP content of the culture.)

The subject of assay [2] is U937 cells. In words: Inhibition of necrosis of U937 cells induced by TNF-α (CellTiter-Glo). As to conditions: Homo sapiens, U-937; TNF-α 100 ng/ml + AT-406 1 μM + z-VAD-FMK 20 μM, 24 h. It is filed as cell-based. As for the experimental part:
After the cells were incubated in a 5% CO2 incubator at 37° C. for 24 h, the test compound of the present invention and the control compound were diluted to the corresponding pre-determined concentration using the medium, and added to the 384-well plate at 5 μL/well. […] Then, 30 μL of CellTiter-Glo luminescent solution was added to each well, and shaken for 2 min. After standing at room temperature for 10 min, the absorbance was measured using an enzyme-linked immunosorbent assay (ELISA). […] A is the group without necrosis-inducing agents, and B is the group with necrosis-inducing agents.

The subject of assay [3] is human colon cancer cells HT-29. In words: Inhibition of necrosis of HT-29 cells induced by TNF-α (CellTiter-Glo). It is filed as cell-based. To be noted: TNF-α 100 ng/ml + AT-406 1 μM + z-VAD-FMK 20 μM, 24 h. As for the experimental part: as §1
For assay [4], the system named is HacaT cells. In words: Inhibition of necrosis of HacaT cells induced by TNF-α (CellTiter-Glo). The format is cell-based. As to conditions: Homo sapiens, TNF-α 100 ng/ml + AT-406 1 μM + z-VAD-FMK 20 μM, 24 h. The method, then:
[…] (purchased from ATCC) in logarithmic growth phase were collected and resuspended in 1640 medium, and then the cell concentration was adjusted to 20 cells/μL, to obtain cell suspension, which was seeded in 384-well plate, with 20 μL cell suspension for each well. After the cells were cultured in a 5% CO2 incubator at 37° C. for 24 h, the test compound of the present invention and the control compound were diluted to the corresponding pre-determined concentration using the medium, and added to the 384-well plate at 5 µL/well. […] Then, 30 μL of CellTiter-Glo luminescent solution was added to each well, and shaken for 2 min. After standing at room temperature for 10 min, the absorbance was measured using ELISA. […] A is the group without necrosis-inducing agents, and B is the group with necrosis-inducing agents.

The target in assay [5] is human RIP1 kinase (Homo sapiens (Human), UniProt Q13546). The assay is described as follows: Inhibitory activity on RIP1 kinase (ADP-Glo). The format is biochemical. As to conditions: human RIP kinase 25 nM. The method, then: The compound of the present invention and the control compound were dissolved in the assay buffer (50 mM Hepes pH 7.5, 50 mM NaCl, 30 mM MgCl2, 1 mM DTT, 0.02% CHAPS, 0.5 mg/mL BSA), and diluted in a ratio of 1:1.5 using a 22-point titration (high concentration 2 μM), and then added to a 384-well plate. […] After completion of the reaction, 5 μL of ADP-Glo reagent containing 0.02% CHAPS was added to each well and incubated at room temperature for 1 h to terminate the kinase reaction and use up all remaining ATP. Then, 5 μL of ADP-Glo detection solution containing 0.02% CHAPS was added to each well and incubated at room temperature for 30 min to measure the emittance intensity. For each ATP concentration, the activity data was obtained by the emittance intensity minus the control intensity.
human RIP1 kinase, sequence (Q13546 whole entry): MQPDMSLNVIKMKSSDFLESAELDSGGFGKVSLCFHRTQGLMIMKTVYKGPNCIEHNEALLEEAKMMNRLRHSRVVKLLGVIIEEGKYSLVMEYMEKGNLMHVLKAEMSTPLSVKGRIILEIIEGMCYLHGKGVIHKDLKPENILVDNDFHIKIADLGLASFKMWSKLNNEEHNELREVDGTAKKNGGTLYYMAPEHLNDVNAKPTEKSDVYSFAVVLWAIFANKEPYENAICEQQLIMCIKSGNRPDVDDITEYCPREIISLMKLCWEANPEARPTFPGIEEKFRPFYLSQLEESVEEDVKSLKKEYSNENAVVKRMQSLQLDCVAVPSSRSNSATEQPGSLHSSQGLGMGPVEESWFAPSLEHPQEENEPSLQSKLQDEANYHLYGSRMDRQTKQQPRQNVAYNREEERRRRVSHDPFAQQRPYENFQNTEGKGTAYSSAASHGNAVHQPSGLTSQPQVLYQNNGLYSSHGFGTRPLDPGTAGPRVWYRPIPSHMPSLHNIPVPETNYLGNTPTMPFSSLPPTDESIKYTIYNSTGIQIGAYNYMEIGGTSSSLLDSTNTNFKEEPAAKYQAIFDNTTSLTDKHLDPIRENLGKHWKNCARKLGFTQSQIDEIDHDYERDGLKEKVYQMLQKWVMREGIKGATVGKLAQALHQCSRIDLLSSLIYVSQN

Regarding `CN1C(=O)[C@@H](NC(=O)c2n[nH]c(Cc3ccccc3)n2)COc2ccccc21` [Control compound 3, reference compound], the IC50 in assay [1] (Homo sapiens, PANC-1) was 51.3 nM; in assay [2], 7.15 nM; in assay [3] (Homo sapiens, HT-29) it was more than 100 nM; in assay [4] it was 9.92 nM.

For `C[C@H]1Oc2ccc(C#Cc3ccncc3)cc2N(C)C(=O)[C@H]1NC(=O)c1n[nH]c(Cc2ccccc2)n1` [Compound I-109], the IC50 in assay [1] (Homo sapiens, PANC-1) turned out to be 12.6 nM; in assay [3] (Homo sapiens, HT-29), 13.1 nM.

Consider `C[C@@H]1Oc2ccc(C#CCN3CCN(CC#Cc4ccc5c(c4)N(C)C(=O)[C@@H](NC(=O)c4ncn(Cc6ccccc6)n4)[C@@H](C)O5)CC3)cc2N(C)C(=O)[C@H]1NC(=O)c1ncn(Cc2ccccc2)n1` [Compound I-40], for which the IC50 in assay [5] amounted to 66.3 nM.

For the molecule `C[C@H]1Oc2ccc(C#CCN3CCN(CC#Cc4ccc5c(c4)NC(=O)[C@@H](NC(=O)c4ncn(Cc6ccccc6)n4)[C@@H](C)O5)CC3)cc2NC(=O)[C@H]1NC(=O)c1ncn(Cc2ccccc2)n1` [Compound I-38], in assay [5], the IC50 was found to be 4.18 nM.

In the case of `COCCOCCOCCOCCOCC#Cc1ccc2c(c1)N(C)C(=O)[C@@H](NC(=O)c1ncn(Cc3ccccc3)n1)CO2` [Compound I-102], the IC50 in assay [1] (Homo sapiens, PANC-1) came out at 13.8 nM; in assay [2] it was 2.08 nM; in assay [3] (Homo sapiens, HT-29) it was 7.92 nM; in assay [4], 3.58 nM.

`[2H]C([2H])([2H])N1C(=O)[C@@H](NC(=O)c2n[nH]c(Cc3ccccc3)n2)[C@@H](C)Oc2ccc(C#CCN3CCN(CC#Cc4ccc5c(c4)N(C([2H])([2H])[2H])C(=O)[C@@H](NC(=O)c4n[nH]c(Cc6ccccc6)n4)[C@@H](C)O5)CC3)cc21` [Compound I-15] gave an IC50 in assay [5] of 4.88 nM.

Consider `C#Cc1ccc2c(c1)N(C)C(=O)[C@@H](NC(=O)c1ncn(Cc3ccccc3)n1)[C@@H](C)O2` [Compound I-120], for which the IC50 in assay [1] (Homo sapiens, PANC-1) is 15.7 nM; in assay [2], 4.05 nM; in assay [3] (Homo sapiens, HT-29) it was 14.6 nM.

`CN1C(=O)[C@@H](NC(=O)c2n[nH]c(Cc3ccccc3)n2)COc2ccc(CCCN3CCN(CCCc4ccc5c(c4)N(C)C(=O)[C@@H](NC(=O)c4n[nH]c(Cc6ccccc6)n4)CO5)CC3)cc21` [Compound I-123]: in assay [2], the IC50 stood at 4.45 nM.

With `C#Cc1ccc2c(c1)N(C)C(=O)[C@@H](NC(=O)c1nc(Cc3ccccc3)n[nH]1)[C@@H](C)O2` [Compound I-119], the IC50 in assay [1] (Homo sapiens, PANC-1) worked out at 17.1 nM; in assay [2], 3.19 nM; in assay [3] (Homo sapiens, HT-29) it was 15.3 nM.

As for `C[C@H]1Oc2ccc(CCCN3CCN(CCCc4ccc5c(c4)N(C)C(=O)[C@@H](NC(=O)c4n[nH]c(Cc6ccccc6)n4)[C@@H](C)O5)CC3)cc2N(C)C(=O)[C@H]1NC(=O)c1n[nH]c(Cc2ccccc2)n1` [Compound I-124], the IC50 in assay [2] worked out at 6.75 nM.

Turning to `CC(O)C#Cc1ccc2c(c1)N(C)C(=O)[C@@H](NC(=O)c1ncn(Cc3ccccc3)n1)[C@@H](C)O2` (stereo partly shown) [Compound I-104], it took 10.2 nM to reach half-maximal inhibition in assay [5] (IC50).

`C[C@H]1Oc2ccc(C#Cc3cccc(N)c3)cc2N(C)C(=O)[C@H]1NC(=O)c1n[nH]c(Cc2ccccc2)n1` [Compound I-117] gave an IC50 in assay [5] of 12.7 nM.

As to `CN1C(=O)[C@@H](NC(=O)c2n[nH]c(Cc3ccccc3)n2)COc2ccc(C#CCN3CCN(CC#Cc4ccc5c(c4)N(C)C(=O)[C@@H](NC(=O)c4n[nH]c(Cc6ccccc6)n4)CO5)CC3)cc21` [Compound I-11], the IC50 in assay [1] (Homo sapiens, PANC-1) was found to be 20.4 nM; in assay [2], 2.09 nM; in assay [3] (Homo sapiens, HT-29) it was 10.8 nM; in assay [4], 2.97 nM.

On to `C[C@H]1Oc2ccc(C#CCN3CCN(CC#Cc4ccc5c(c4)N(C)C(=O)[C@@H](NC(=O)c4ncn(Cc6ccccc6)n4)[C@@H](C)O5)CC3)cc2N(C)C(=O)[C@H]1NC(=O)c1ncn(Cc2ccccc2)n1` [Compound I-23], for which the IC50 in assay [1] (Homo sapiens, PANC-1) worked out at 17.8 nM; in assay [2], 5.91 nM; in assay [3] (Homo sapiens, HT-29), 26.4 nM; in assay [4] it was 2.68 nM.

Regarding `C[C@H]1Oc2ccc(C#Cc3cccnc3)cc2N(C)C(=O)[C@H]1NC(=O)c1n[nH]c(Cc2ccccc2)n1` [Compound I-111], the IC50 in assay [1] (Homo sapiens, PANC-1) is 12.4 nM; in assay [3] (Homo sapiens, HT-29), 13.7 nM.

In assay [5], `CN1C(=O)[C@H](NC(=O)c2ncn(Cc3ccccc3)n2)COc2ccc(C#CCOCCOCCOCCOCCOCC#CC#CCOCCOCCOCCOCCOCC#Cc3ccc4c(c3)N(C)C(=O)[C@H](NC(=O)c3ncn(Cc5ccccc5)n3)CO4)cc21` [Compound I-90] displayed an IC50 of 6.29 nM.

The molecule `C#CCN1CCN(CC#Cc2ccc3c(c2)N(C)C(=O)[C@@H](NC(=O)c2ncn(Cc4ccccc4)n2)[C@H](C)O3)CC1` [Compound I-39] gave an IC50 in assay [5] of 79 nM.

As to `[2H]C([2H])([2H])N1C(=O)[C@@H](NC(=O)c2n[nH]c(Cc3ccccc3)n2)[C@@H](C)Oc2ccc(C#CCN3CCN(CC#C)CC3)cc21` [Compound I-14], the IC50 in assay [5] was 4.52 nM.

As for `C[C@H]1Oc2ccc(C#Cc3cccnc3)cc2N(C)C(=O)[C@H]1NC(=O)c1ncn(Cc2ccccc2)n1` [Compound I-112], the IC50 in assay [1] was determined as 11.3 nM; in assay [3] it was 10 nM; in assay [5], 7.21 nM.

Consider `C[C@H]1Oc2ccc(CCCN3CCN(CCCc4ccc5c(c4)N(C)C(=O)[C@@H](NC(=O)c4ncn(Cc6ccccc6)n4)[C@@H](C)O5)CC3)cc2N(C)C(=O)[C@H]1NC(=O)c1ncn(Cc2ccccc2)n1` [Compound I-122], for which the IC50 in assay [2] worked out at 7.14 nM.

For the molecule `C[C@H]1Oc2ccc(C#CCOCCOCCOCCOCCOCC#CC#CCOCCOCCOCCOCCOCC#Cc3ccc4c(c3)N(C)C(=O)[C@H](NC(=O)c3ncn(Cc5ccccc5)n3)[C@@H](C)O4)cc2N(C)C(=O)[C@@H]1NC(=O)c1ncn(Cc2ccccc2)n1` [Compound I-89], in assay [5], the IC50 amounted to 7.44 nM.

Turning to `COCCOCCOCCOCCOCC#Cc1ccc2c(c1)N(C)C(=O)[C@@H](NC(=O)c1n[nH]c(Cc3ccccc3)n1)CO2` [Compound I-100], the IC50 was 12.5 nM in assay [1] (Homo sapiens, PANC-1); 3.14 nM in assay [2]; 8.65 nM in assay [3] (Homo sapiens, HT-29); 2.39 nM in assay [4].

`C[C@H]1Oc2ccc(C#Cc3ccncc3)cc2N(C)C(=O)[C@H]1NC(=O)c1ncn(Cc2ccccc2)n1` [Compound I-110]: the IC50 in assay [1] (Homo sapiens, PANC-1) amounted to 11.1 nM; in assay [3] (Homo sapiens, HT-29), 10.9 nM.

In the case of `COCCOCCOCCOCCOCC#Cc1ccc2c(c1)N(C)C(=O)[C@@H](NC(=O)c1ncn(Cc3ccccc3)n1)[C@@H](C)O2` [Compound I-101], the IC50 amounted to 13.7 nM in assay [1] (Homo sapiens, PANC-1); 5.62 nM in assay [2]; 10.1 nM in assay [3] (Homo sapiens, HT-29); 2.95 nM in assay [4].

As for `CN1C(=O)[C@@H](NC(=O)c2n[nH]c(Cc3ccccc3)n2)COc2ccc(C#CCCCCC#Cc3ccc4c(c3)N(C)C(=O)[C@@H](NC(=O)c3n[nH]c(Cc5ccccc5)n3)CO4)cc21` [Compound I-80], in assay [5], half-maximal inhibition (IC50) was put at 8.85 nM.

Molecule `[2H]C([2H])([2H])N1C(=O)[C@@H](NC(=O)c2ncn(Cc3ccccc3)n2)[C@@H](C)Oc2ccc(C#CCN3CCN(CC#C)CC3)cc21` [Compound I-35] gave an IC50 in assay [5] of 5.89 nM.

As for `C[C@H]1Oc2ccc(C#CCN3CCN(CC#Cc4ccc5c(c4)N(C)C(=O)[C@@H](NC(=O)c4n[nH]c(Cc6ccccc6)n4)[C@@H](C)O5)CC3)cc2N(C)C(=O)[C@H]1NC(=O)c1n[nH]c(Cc2ccccc2)n1` [Compound I-2], the IC50 in assay [1] (Homo sapiens, PANC-1) is 24.4 nM; in assay [2] it was 4.47 nM; in assay [3] (Homo sapiens, HT-29), 13 nM; in assay [4], 3.89 nM.

Turning to `CN1C(=O)[C@@H](NC(=O)c2ncn(Cc3ccccc3)n2)COc2ccc(CCCN3CCN(CCCc4ccc5c(c4)N(C)C(=O)[C@@H](NC(=O)c4ncn(Cc6ccccc6)n4)CO5)CC3)cc21` [Compound I-121], in assay [2], the IC50 turned out to be 6.12 nM.

The values are drawn from patent US20240270732A1, “RECEPTOR-INTERACTING PROTEIN INHIBITOR, PREPARATION METHOD THEREFOR, AND USE THEREOF” (CHENGDU BIOBEL BIOTECHNOLOGY CO., LTD, priority 2021, published 2024).
